According to patent US7780988B2, “Method for making homogeneous spray-dried solid amorphous drug dispersions using pressure nozzles” (Bend Research, Inc., priority 2002, dated 2010):

Legend:
[1] = Dissolution test of Drug 2 dispersions (as in Example 1, with exceptions); type: physicochemical; conditions: 2000 μg/mL if all of the drug had dissolved, PBS pH 6.5, 37° C.
Description: For this test, samples containing 7.2 mg of the Example 1 dispersion were added to microcentrifuge tubes, in duplicate. The tubes were placed in a 37° C. temperature-controlled chamber, and 1.8 mL PBS at pH 6.5 and having an osmotic pressure of 290 mOsm/kg was added. The samples were mixed using a vortex mixer for about 60 seconds. The samples were centrifuged at 13,000 G at 37° C. for 1 minute. The resulting supernatant solutions were then sampled and diluted 1:6 by volume with methanol and then analyzed by high-performance liquid chromatography (HPLC) at a UV absorbance of 256 nm using a Waters Symmetry C8 column and a mobile phase consisting of 15% (0.2% H3PO4)/85% methanol. The contents of the tubes were mixed on the vortex mixer and allowed to stand undisturbed at 37° C. until the next sample was taken. […]
The solubility and physical properties of the dispersions of Example 4 and Control C2 were determined as in Example 1 with the following exceptions. For measurement of concentration enhancement, sufficient quantities of the dispersion were added to the microcentrifuge tubes such that the concentration if all of the drug had dissolved would be 2000 μg/mL. Samples were analyzed by HPLC, with absorbance at 297 nm (Hewlett Packard 1100 HPLC, Zorbax SB C18 column, 35% acetonitrile/65% H2O). The same properties of a control of crystalline Drug 2 (CD2) alone were also determined.

[2] = Dissolution test of Drug 1 dispersions in PBS (concentration enhancement); type: physicochemical; conditions: PBS pH 6.5, 37° C.
Description: For this test, samples containing 7.2 mg of the Example 1 dispersion were added to microcentrifuge tubes, in duplicate. The tubes were placed in a 37° C. temperature-controlled chamber, and 1.8 mL PBS at pH 6.5 and having an osmotic pressure of 290 mOsm/kg was added. The samples were mixed using a vortex mixer for about 60 seconds. The samples were centrifuged at 13,000 G at 37° C. for 1 minute. The resulting supernatant solutions were then sampled and diluted 1:6 by volume with methanol and then analyzed by high-performance liquid chromatography (HPLC) at a UV absorbance of 256 nm using a Waters Symmetry C8 column and a mobile phase consisting of 15% (0.2% H3PO4)/85% methanol. The contents of the tubes were mixed on the vortex mixer and allowed to stand undisturbed at 37° C. until the next sample was taken. […] Control 1 and crystalline Drug 1 alone were tested using the same procedure.
The concentrations of drug obtained in these samples were used to determine the value of the maximum concentration of drug in the first ninety minutes (Cmax90) and the area under the curve of drug concentration versus time in the first ninety minutes (AUC90).

Row | Compound | AUC90 [1] | Cmax90 [1] [µg/mL] | AUC90 ([2]; Drug 1, area under the curve of drug concentration versus time in the first ninety minutes) [µg·min/mL] | Cmax90 ([2]; Drug 1, maximum concentration of drug in the first ninety minutes) [µg/mL] | Drug 1 Concentration ([2]; 7.2 mg dispersion in 1.8 mL, time 0 min) [µg/mL] | AUC ([2]; elapsed time 0 min) [µg·min/mL] | AUC ([2]; elapsed time 4 min) [µg·min/mL] | AUC ([2]; elapsed time 10 min) [µg·min/mL] | AUC ([2]; elapsed time 20 min) [µg·min/mL] | AUC ([2]; elapsed time 40 min) [µg·min/mL] | AUC ([2]; elapsed time 90 min) [µg·min/mL] | AUC ([2]; elapsed time 1200 min) | Drug 1 Concentration ([2]; time 4 min) [µg/mL] | Drug 1 Concentration ([2]; time 10 min) [µg/mL] | Drug 1 Concentration ([2]; time 20 min) [µg/mL] | Drug 1 Concentration ([2]; time 40 min) [µg/mL] | Drug 1 Concentration ([2]; time 90 min) [µg/mL] | Drug 1 Concentration ([2]; time 1200 min) [µg/mL]
1 | O=C(N[C@@H](Cc1ccccc1)[C@@H](O)C(=O)N1C[C@@H](O)[C@@H](O)C1)c1cc2cc(Cl)ccc2[nH]1 [CD2, 5-chloro-1H-indole-2-carboxylic acid [(1S)-benzyl-3-((3R,4S)-dihydroxypyrroldin-1-yl-)-(2R)-hydroxy-3-oxypropyl]amide] | 12,800 min · μg/mL | 149 | – | – | – | – | – | – | – | – | – | – | – | – | – | – | – | –
2 | CCOC(=O)N1c2ccc(C(F)(F)F)cc2C(N(Cc2cc(C(F)(F)F)cc(C(F)(F)F)c2)C(=O)OC)CC1CC (stereo not drawn) [Crystalline Drug 1, 4-[(3,5-bis-trifluoromethyl-benzyl)-methoxycarbonyl-amino]-2-ethyl-6-trifluoromethyl-3,4-dihydro-2H-quinoline-1-carboxylic acid ethyl ester] | – | – | <88 | <1 | 0 | 0 | <2 | <8 | <18 | <38 | <88 | <1,200 min · μg/mL | <1 | <1 | <1 | <1 | <1 | <1
